{"source": "patent US20230013669A1", "about": "“Antibacterial Treatment Using a Cannabinoid and an Active Agent” (priority 2019, published 2023)", "assay_type_in_all_cases": "cell-based", "key": {"[1]": {"test_system": "Pseudomonas aeruginosa ATCC 27853 (GN_042)", "experiment": "MIC micro-broth dilution assay (Example 1 method)", "settings": "for MIC: ATCC27853"}, "[2]": {"test_system": "Escherichia coli ATCC 25922", "experiment": "microbe, parasite or virus in culture", "method": "(§1) The inoculum was then diluted in CaMHB to give a mid-log phase cultures and 40 μL was added to each well from column 1 to column 18, and column 23. 45 μL of the inoculum was added to each well from column 19 to column 22 to give the final cell density of 5×10^5 CFU/mL. The plates were incubated at 37° C. for 18-20h.\n(§2) Optical density was read at 600 nm (OD600) using Gen5 Spectrophotometer. […] Analysis was performed using Microsoft Excel."}, "[3]": {"test_system": "Acinetobacter baumannii ATCC 19606", "experiment": "microbe, parasite or virus in culture", "method": "as §1, §2"}, "[4]": {"test_system": "Pseudomonas aeruginosa ATCC 27853", "experiment": "microbe, parasite or virus in culture", "method": "as §1, §2"}, "[5]": {"test_system": "Klebsiella pneumoniae ATCC 700603", "experiment": "microbe, parasite or virus in culture", "method": "as §1, §2"}, "[6]": {"test_system": "Pseudomonas aeruginosa ATCC 27853", "experiment": "Synergy assay CBD with PMBN (Example 10)", "settings": "for FICI: Table 40", "method": "as §1, §2\n(§3) CBD was tested in combination with PMBN in a 14×9 matrix for each. CBD and PMBN were also included on the plate individually (from column 20 and 2) as positive controls and to collect the MIC values.\n(§4) CBD was two-fold serial diluted across the wells of a 384-wells plate from row B to O (FIG. 1), while PMBN was two-fold serial diluted across the wells of a 384-wells plate from column 2 to 10 (FIG. 2). The inhibitor controls of each antibiotic/compound were 1:2 serial diluted down the plate at column 19, 20, 21 (respectively A, B and C antibiotic).\n(§5) 5 μL of the CBD mother plate were plated vertically intro tested 384-well PS plate (for column 2-10). 5 μL were stamped out horizontally from the PMBN mother plate. Resulting in a final volume of 10 μL in the test plates. 5 μL antibiotic were added to the control column (column 20, 21). Column 23 was the growth control and column 24 was media control."}, "[7]": {"test_system": "Klebsiella pneumoniae ATCC 700603", "experiment": "Synergy assay CBD with PMBN (Example 10)", "method": "as §1, §2, §3, §4, §5"}, "[8]": {"test_system": "Klebsiella pneumoniae ATCC 700603", "experiment": "MIC micro-broth dilution assay (Example 1 method)", "settings": "Klebsiella pneumoniae, ATCC700603; CBD alone; read-out: CBD MIC", "method": "Methods were as for Example 1. Cannabidiol was tested in combination with cefotetan.\nMethods were as for Example 1. Cannabidiol was tested in combination with aztreonam.\nMethods were as for Example 1. Cannabidiol was tested in combination with cefepime.\nMethods were as for Example 1. Cannabidiol was tested in combination with octapeptin C4.\nMethods were as for Example 1. Cannabidiol was tested in combination with Spero SPR206. The experiments were carried out three times."}, "[9]": {"settings": "Example 10 Table 38, compound alone, replicates"}, "[10]": {"settings": "Example 10, panel of wild type Gram-negative bacteria"}}, "note": "Several values for one entry are separate records, joined by “and”; a condition that tells them apart may be missing. Equal values may be shown once. Read-outs that look alike come from different tables or passages of the source.", "data": [{"smiles": "C=C(C)C1CCC(C)=CC1c1c(O)cc(CCCCC)cc1O", "note": "(stereo not drawn) [Cannabidiol, 2-[3-methyl-6-(1-methylethenyl)-2-cyclohexen-1-yl]-5-pentyl-1,3-benzenediol]", "values": [{"measurement": "MIC", "setting": "[1]; CBD alone, Pseudomonas aeruginosa ATCC 27853, read-out: CBD MIC", "result": 256, "unit": "µg/mL"}, {"measurement": "CBD MIC", "setting": "[1]; CBD alone", "result": 256, "unit": "µg/mL"}, {"measurement": "Minimal Inhibitory Concentration (MIC)", "setting": "[1]; Example 1 Table 3, GN_042, compound alone, replicates", "result": ">256", "unit": "µg/mL"}, {"measurement": "Minimum Inhibitory Concentration (MIC)", "setting": "[1]; Example 6 Table 23, GN_042, compound alone, replicates", "result": ">256", "unit": "µg/mL"}, {"measurement": "CBD MIC", "setting": "[1]; Pseudomonas aeruginosa ATCC 27853, CBD alone", "result": 256, "unit": "µg/mL"}, {"measurement": "MIC", "setting": "[1]; Pseudomonas aeruginosa, Example 1 Table 3, GN_042, compound alone, replicates, read-out: Minimal Inhibitory Concentration (MIC)", "result": "> 256", "unit": "µg/mL"}, {"measurement": "MIC", "setting": "[1]; Pseudomonas aeruginosa, Example 6 Table 23, GN_042, compound alone, replicates, read-out: Minimum Inhibitory Concentration (MIC)", "result": "> 256", "unit": "µg/mL"}, {"measurement": "MIC", "setting": "[2]; Escherichia coli, ATCC25922, Example 10 Table 38, compound alone, replicates, read-out: MIC", "result": "> 256", "unit": "µg/mL"}, {"measurement": "MIC", "setting": "[2]; Escherichia coli, ATCC25922, Example 10 Table 39, read-out: CBD MIC (CBD, alone)", "result": 256, "unit": "µg/mL"}, {"measurement": "MIC", "setting": "[2]; [9]", "result": ">256", "unit": "µg/mL"}, {"measurement": "MIC", "setting": "[3]; Acinetobacter baumannii, ATCC19606, Example 10 Table 38, compound alone, replicates, read-out: MIC", "result": "> 256", "unit": "µg/mL"}, {"measurement": "MIC", "setting": "[3]; Acinetobacter baumannii, ATCC19606, Example 10 Table 39, read-out: CBD MIC (CBD, alone)", "result": 256, "unit": "µg/mL"}, {"measurement": "MIC", "setting": "[3]; [9]", "result": ">256", "unit": "µg/mL"}, {"measurement": "MIC", "setting": "[4]; [9]", "result": ">256", "unit": "µg/mL"}, {"measurement": "MIC", "setting": "[4]; Pseudomonas aeruginosa, ATCC27853, Example 10 Table 38, compound alone, replicates, read-out: MIC", "result": "> 256", "unit": "µg/mL"}, {"measurement": "MIC", "setting": "[4]; Pseudomonas aeruginosa, ATCC27853, Example 10 Table 39, read-out: CBD MIC (CBD, alone)", "result": 256, "unit": "µg/mL"}, {"measurement": "MIC", "setting": "[5]; [9]", "result": ">256", "unit": "µg/mL"}, {"measurement": "MIC", "setting": "[5]; Klebsiella pneumoniae, ATCC700603, Example 10 Table 38, compound alone, replicates, read-out: MIC", "result": "> 256", "unit": "µg/mL"}, {"measurement": "MIC", "setting": "[5]; Klebsiella pneumoniae, ATCC700603, Example 10 Table 39, read-out: CBD MIC (CBD, alone)", "result": 256, "unit": "µg/mL"}, {"measurement": "CBD MIC with PMBN (MCC_9298) at concn 1 μg/mL", "setting": "[6]; Example 10", "result": 64, "unit": "µg/mL"}, {"measurement": "CBD MIC with PMBN (MCC_9298) at concn 2 μg/mL", "setting": "[6]; Example 10", "result": 64, "unit": "µg/mL"}, {"measurement": "CBD MIC with PMBN (MCC_9298) at concn 32 μg/mL", "setting": "[6]; Example 10", "result": 32, "unit": "µg/mL"}, {"measurement": "FICI range", "setting": "[6]; Example 10, CBD + PMBN, listed as CBD", "result": "0.28-1.13 and 0.25-1.13"}, {"measurement": "CBD MIC with PMBN (MCC_9298) at concn 4 μg/mL", "setting": "[6]; Example 10, listed as CBD", "result": "64 µg/mL and 32 µg/mL"}, {"measurement": "CBD MIC with PMBN (MCC_9298) at concn 8 μg/mL", "setting": "[6]; Example 10, listed as CBD", "result": "64 µg/mL and 32 µg/mL"}, {"measurement": "CBD MIC with PMBN (MCC_9298) at concn 16 μg/mL", "setting": "[6]; Example 10, listed as CBD", "result": "64 µg/mL and 32 µg/mL"}, {"measurement": "CBD in combination with PMBN: synergy", "setting": "[6]; [10]", "result": "synergistic activity"}, {"measurement": "FICI", "setting": "[6]; CBD + PMBN at 1 (μg/mL per Table 39)", "result": 0.2812}, {"measurement": "FICI", "setting": "[6]; CBD + PMBN at 2", "result": 0.3125}, {"measurement": "FICI", "setting": "[6]; CBD + PMBN at 4, listed as CBD", "result": "0.375 and 0.25"}, {"measurement": "FICI", "setting": "[6]; CBD + PMBN at 8, listed as CBD", "result": "0.5 and 0.375"}, {"measurement": "FICI", "setting": "[6]; CBD + PMBN at 16, listed as CBD", "result": "0.75 and 0.625"}, {"measurement": "FICI", "setting": "[6]; CBD + PMBN at 32", "result": 1.125}, {"measurement": "CBD MIC with PMBN (MCC_9298) at concn 1 μg/mL", "setting": "[7]; Example 10", "result": ">256", "unit": "µg/mL"}, {"measurement": "CBD MIC with PMBN (MCC_9298) at concn 2 μg/mL", "setting": "[7]; Example 10", "result": ">256", "unit": "µg/mL"}, {"measurement": "CBD MIC with PMBN (MCC_9298) at concn 32 μg/mL", "setting": "[7]; Example 10, listed as CBD", "result": "64 µg/mL and 32 µg/mL"}, {"measurement": "CBD in combination with PMBN: synergy", "setting": "[7]; [10]", "result": "synergistic activity"}, {"measurement": "FICI", "setting": "[7]; Table 40, CBD + PMBN at 2", "result": 1.0625}, {"measurement": "MIC", "setting": "[8]", "result": 256, "unit": "µg/mL"}]}]}
